According to ChEMBL document CHEMBL5291721, “A preclinical secondary pharmacology resource illuminates target-adverse drug reaction associations of marketed drugs” (Nat Commun, 2023):

How the values were obtained:
[1] = biological target: T1, Alpha-1A adrenergic receptor (Homo sapiens, UniProt P35348); assay type: functional, cell-based
T1 sequence (P35348 whole entry): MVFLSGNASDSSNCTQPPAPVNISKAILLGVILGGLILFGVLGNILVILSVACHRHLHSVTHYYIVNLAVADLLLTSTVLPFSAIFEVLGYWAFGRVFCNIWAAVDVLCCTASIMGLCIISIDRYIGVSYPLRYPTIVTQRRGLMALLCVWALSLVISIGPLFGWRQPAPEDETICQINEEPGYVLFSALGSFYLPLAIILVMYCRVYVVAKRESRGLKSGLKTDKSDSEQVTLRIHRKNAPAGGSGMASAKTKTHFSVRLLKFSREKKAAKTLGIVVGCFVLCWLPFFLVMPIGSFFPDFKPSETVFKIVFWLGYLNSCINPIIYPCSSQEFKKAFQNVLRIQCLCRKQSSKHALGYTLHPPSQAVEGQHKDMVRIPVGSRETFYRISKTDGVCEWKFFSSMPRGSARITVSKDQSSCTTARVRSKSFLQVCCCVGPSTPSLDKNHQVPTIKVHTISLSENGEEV

D(1A) dopamine receptor = D(1A) dopamine receptor (Homo sapiens, UniProt P21728)
Chain of D(1A) dopamine receptor (P21728 whole entry): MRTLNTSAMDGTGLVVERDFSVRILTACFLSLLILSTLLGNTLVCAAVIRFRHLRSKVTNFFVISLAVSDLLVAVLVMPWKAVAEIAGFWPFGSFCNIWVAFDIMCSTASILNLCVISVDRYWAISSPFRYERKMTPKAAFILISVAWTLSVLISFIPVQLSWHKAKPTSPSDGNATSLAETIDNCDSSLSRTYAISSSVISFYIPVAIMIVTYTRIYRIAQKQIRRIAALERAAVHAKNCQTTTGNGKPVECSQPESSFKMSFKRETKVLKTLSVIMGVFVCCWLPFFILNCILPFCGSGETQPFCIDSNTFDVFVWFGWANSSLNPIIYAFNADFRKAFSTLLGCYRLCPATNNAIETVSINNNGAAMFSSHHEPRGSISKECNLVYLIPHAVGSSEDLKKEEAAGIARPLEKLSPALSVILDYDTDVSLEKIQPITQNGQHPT

D(3) dopamine receptor = D(3) dopamine receptor (Homo sapiens, UniProt P35462)
Chain of D(3) dopamine receptor (P35462 whole entry): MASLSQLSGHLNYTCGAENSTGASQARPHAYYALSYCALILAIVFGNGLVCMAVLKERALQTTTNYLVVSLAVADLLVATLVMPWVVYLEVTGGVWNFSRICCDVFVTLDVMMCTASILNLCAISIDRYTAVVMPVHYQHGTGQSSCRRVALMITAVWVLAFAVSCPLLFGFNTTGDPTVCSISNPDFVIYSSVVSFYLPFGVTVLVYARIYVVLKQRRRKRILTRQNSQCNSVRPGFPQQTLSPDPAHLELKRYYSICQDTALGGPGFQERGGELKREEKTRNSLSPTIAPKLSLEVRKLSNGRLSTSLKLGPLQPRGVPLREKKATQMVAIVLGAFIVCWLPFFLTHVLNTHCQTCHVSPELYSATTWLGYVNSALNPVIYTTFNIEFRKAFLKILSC

Prothrombin = Prothrombin (Homo sapiens, UniProt P00734); assay type: functional
[2] = biological target: Vascular endothelial growth factor receptor 2 (Homo sapiens, UniProt P35968); assay type: functional
Chain of Vascular endothelial growth factor receptor 2 (P35968 whole entry): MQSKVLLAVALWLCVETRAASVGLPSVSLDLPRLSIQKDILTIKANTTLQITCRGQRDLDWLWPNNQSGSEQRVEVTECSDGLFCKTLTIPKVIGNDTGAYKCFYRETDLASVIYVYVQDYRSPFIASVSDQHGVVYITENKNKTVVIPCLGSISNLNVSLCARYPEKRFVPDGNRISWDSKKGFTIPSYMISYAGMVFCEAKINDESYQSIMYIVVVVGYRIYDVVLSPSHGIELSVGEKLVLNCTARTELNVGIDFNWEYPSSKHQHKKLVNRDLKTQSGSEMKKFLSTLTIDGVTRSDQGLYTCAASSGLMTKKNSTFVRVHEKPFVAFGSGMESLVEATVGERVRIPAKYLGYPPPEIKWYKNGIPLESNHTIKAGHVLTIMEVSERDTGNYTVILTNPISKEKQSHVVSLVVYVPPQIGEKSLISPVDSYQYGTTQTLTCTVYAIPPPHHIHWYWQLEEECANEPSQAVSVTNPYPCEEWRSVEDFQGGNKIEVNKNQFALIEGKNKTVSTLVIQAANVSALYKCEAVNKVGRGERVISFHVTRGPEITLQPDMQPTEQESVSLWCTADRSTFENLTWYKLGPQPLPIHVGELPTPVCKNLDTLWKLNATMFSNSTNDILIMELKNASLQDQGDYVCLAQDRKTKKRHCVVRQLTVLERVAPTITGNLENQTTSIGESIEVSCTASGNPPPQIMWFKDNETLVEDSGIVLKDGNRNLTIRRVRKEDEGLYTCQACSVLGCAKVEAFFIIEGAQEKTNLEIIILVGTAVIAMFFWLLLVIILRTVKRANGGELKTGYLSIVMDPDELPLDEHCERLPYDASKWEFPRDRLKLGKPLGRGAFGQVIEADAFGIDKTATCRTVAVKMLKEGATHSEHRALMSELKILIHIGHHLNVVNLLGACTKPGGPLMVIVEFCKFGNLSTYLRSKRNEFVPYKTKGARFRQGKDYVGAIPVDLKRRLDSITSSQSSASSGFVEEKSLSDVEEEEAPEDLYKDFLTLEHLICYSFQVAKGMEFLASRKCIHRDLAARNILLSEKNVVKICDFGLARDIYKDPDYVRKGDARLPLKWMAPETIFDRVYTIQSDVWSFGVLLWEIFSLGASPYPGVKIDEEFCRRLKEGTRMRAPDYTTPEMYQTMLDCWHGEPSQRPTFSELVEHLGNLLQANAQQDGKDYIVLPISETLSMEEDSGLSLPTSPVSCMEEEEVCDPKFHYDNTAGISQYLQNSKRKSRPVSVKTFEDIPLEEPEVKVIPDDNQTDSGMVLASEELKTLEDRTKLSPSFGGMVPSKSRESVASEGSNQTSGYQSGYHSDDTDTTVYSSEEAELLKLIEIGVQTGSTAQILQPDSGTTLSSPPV

Progesterone receptor = biological target: T2, Progesterone receptor (Homo sapiens, UniProt P06401)
T2 sequence (P06401 whole entry): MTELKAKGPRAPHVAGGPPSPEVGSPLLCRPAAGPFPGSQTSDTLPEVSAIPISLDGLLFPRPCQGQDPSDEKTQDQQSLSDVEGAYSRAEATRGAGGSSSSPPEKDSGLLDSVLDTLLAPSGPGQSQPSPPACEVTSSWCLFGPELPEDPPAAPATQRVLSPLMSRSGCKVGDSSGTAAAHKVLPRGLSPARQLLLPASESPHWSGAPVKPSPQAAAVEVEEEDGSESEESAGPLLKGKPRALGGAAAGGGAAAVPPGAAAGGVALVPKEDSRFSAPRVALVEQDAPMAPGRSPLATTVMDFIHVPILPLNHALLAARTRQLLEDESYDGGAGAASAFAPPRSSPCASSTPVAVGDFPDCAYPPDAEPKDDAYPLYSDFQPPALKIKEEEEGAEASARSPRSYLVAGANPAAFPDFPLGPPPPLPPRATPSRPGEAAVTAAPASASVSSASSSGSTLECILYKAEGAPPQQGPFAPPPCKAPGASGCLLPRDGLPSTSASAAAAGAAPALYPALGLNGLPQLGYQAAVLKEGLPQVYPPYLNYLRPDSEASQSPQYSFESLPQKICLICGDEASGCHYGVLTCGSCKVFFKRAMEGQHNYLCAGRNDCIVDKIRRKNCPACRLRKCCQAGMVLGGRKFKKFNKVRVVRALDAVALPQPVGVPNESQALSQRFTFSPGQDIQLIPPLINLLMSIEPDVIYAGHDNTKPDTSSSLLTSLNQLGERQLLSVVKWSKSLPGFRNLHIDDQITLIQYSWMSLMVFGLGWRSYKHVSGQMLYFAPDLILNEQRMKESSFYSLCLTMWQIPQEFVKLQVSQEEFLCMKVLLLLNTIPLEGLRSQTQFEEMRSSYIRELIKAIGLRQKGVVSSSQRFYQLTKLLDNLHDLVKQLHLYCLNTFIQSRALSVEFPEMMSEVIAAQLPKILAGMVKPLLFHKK

[3] = biological target: T1, Alpha-1A adrenergic receptor
[4] = biological target: Gamma-aminobutyric acid receptor subunit alpha-1 (Rattus norvegicus, UniProt P62813)
Chain of Gamma-aminobutyric acid receptor subunit alpha-1 (P62813 whole entry): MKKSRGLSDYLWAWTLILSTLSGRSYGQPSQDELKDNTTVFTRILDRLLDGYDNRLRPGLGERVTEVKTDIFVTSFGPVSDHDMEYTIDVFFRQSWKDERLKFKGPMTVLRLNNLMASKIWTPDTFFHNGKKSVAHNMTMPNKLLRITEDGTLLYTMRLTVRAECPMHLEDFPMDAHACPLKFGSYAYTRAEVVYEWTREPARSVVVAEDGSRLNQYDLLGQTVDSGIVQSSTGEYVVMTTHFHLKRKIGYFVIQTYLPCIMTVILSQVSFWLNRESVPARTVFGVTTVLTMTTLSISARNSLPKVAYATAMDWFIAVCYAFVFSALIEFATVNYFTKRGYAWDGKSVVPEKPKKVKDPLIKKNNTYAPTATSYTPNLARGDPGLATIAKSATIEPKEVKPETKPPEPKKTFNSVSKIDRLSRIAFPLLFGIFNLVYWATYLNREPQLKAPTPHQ

[5] = biological target: T3, Neuropeptide Y receptor type 1 (Homo sapiens, UniProt P25929)
T3 sequence (P25929 whole entry): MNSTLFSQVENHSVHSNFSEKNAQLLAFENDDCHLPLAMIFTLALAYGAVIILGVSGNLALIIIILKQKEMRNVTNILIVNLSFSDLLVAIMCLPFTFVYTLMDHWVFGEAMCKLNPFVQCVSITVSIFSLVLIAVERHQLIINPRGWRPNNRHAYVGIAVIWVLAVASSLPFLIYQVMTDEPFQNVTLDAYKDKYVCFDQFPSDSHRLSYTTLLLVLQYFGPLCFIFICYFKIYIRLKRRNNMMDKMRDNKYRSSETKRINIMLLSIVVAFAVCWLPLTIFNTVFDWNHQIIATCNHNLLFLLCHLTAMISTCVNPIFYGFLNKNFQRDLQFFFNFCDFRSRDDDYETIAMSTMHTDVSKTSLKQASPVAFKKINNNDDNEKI

Thromboxane A2 receptor = biological target: T4, Thromboxane A2 receptor (Homo sapiens, UniProt P21731)
T4 sequence (P21731 whole entry): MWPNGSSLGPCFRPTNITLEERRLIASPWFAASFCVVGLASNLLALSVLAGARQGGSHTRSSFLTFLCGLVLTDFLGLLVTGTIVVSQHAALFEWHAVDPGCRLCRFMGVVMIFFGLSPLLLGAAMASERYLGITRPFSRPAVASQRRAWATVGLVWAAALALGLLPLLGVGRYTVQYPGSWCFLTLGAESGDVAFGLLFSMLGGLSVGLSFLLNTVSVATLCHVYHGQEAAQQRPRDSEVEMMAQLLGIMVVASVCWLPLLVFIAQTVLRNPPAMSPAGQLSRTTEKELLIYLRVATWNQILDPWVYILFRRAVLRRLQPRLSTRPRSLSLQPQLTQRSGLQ

[6] = biological target: T1, Alpha-1A adrenergic receptor; assay type: functional, cell-based; remark: listed apart in the source
Cannabinoid receptor 1 = Cannabinoid receptor 1 (Homo sapiens, UniProt P21554); assay type: functional, cell-based
Chain of Cannabinoid receptor 1 (P21554 whole entry): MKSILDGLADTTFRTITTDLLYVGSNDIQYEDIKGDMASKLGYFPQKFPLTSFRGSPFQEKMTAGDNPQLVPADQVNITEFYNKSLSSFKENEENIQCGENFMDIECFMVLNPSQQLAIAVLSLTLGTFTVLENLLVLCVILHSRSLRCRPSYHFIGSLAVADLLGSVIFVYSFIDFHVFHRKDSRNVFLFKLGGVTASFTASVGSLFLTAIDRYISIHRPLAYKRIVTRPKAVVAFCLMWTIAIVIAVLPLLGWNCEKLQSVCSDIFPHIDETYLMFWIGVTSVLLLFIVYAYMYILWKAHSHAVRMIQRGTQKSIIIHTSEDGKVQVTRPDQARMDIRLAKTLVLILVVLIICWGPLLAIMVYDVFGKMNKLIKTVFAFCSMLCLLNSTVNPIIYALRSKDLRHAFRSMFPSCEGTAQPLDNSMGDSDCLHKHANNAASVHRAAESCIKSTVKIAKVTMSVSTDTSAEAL
Also: assay procedure not described here.

Structure (SMILES) | AC50 [1] [µM] | AC50 (D(1A) dopamine receptor) [µM] | AC50 (D(3) dopamine receptor) [µM] | AC50 (Prothrombin) [µM] | AC50 [2] [µM] | AC50 (Progesterone receptor) [µM] | AC50 [3] [µM] | AC50 [4] [µM] | AC50 [5] [µM] | AC50 (Thromboxane A2 receptor) [µM] | AC50 [6] [µM] | AC50 (Cannabinoid receptor 1) [µM]
CCO/N=C(\C(=O)N[C@@H]1C(=O)N2C(C(=O)[O-])=C(Sc3nc(-c4cc[n+](C)cc4)cs3)CS[C@H]12)c1nsc(N)n1 [CEFTAROLINE] | > 30 | > 30 | > 30 | > 30 | > 30 | > 30 |  |  |  |  |  | 
Cc1c(-c2ccccc2)oc2c(C(=O)OCCN3CCCCC3)cccc2c1=O [FLAVOXATE] | 6.29 | > 30 | 0.88 | > 30 | > 30 | > 30 |  |  |  |  |  | 
CCc1ccc(CCOc2ccc(CC3SC(=O)NC3=O)cc2)nc1 (configuration not stated) [PIOGLITAZONE] | > 10 | > 30 | > 30 | > 30 | > 30 | > 30 | > 10 | > 10 | > 30 | > 30 |  | 
CC(C)C(=O)Nc1ccc([N+](=O)[O-])c(C(F)(F)F)c1 [FLUTAMIDE] | 9.04 | > 30 | > 30 | > 30 | > 30 | > 30 | > 30 | > 10 | > 30 | > 30 | > 30 | 
O=C1CC[C@@]2(O)[C@H]3Cc4ccc(O)c5c4[C@@]2(CCN3CC2CC2)[C@H]1O5 [NALTREXONE] | > 30 | > 30 | > 30 | > 30 | > 30 | > 30 |  |  |  |  |  | 
CCC(=O)c1c(O)cc(O)cc1O [FLOPROPIONE] | > 30 | > 30 | 12.1 | > 30 | > 30 | > 30 |  |  |  |  |  | 
CC(=O)OC[C@H]1O[C@@H](n2ccc(=O)[nH]c2=O)[C@H](OC(C)=O)[C@@H]1OC(C)=O [URIDINE TRIACETATE] | > 30 | > 30 | > 30 | > 30 | > 30 | > 30 |  |  |  |  |  | 
CC(N/C(=N\C#N)Nc1ccncc1)C(C)(C)C (configuration not stated) [PINACIDIL ANHYDROUS] | > 30 | > 30 | > 30 | > 30 | > 30 | > 30 |  |  |  |  |  | 
Cc1ccc(O)c2ncccc12 [TILIQUINOL] | > 30 | > 30 | > 30 | > 30 | > 30 | > 30 |  |  |  |  |  | 
O=C1c2c(O)c(=O)ccn2N([C@@H]2c3ccccc3SCc3c2ccc(F)c3F)[C@@H]2COCCN12 [BALOXAVIR] | > 30 | > 30 | > 30 | > 30 | > 30 | > 30 |  |  |  |  |  | 
OC[C@@H](O)[C@@H](O)[C@H](O)[C@H](O)CO [MANNITOL] | > 30 | > 30 | > 30 | > 30 | > 30 | > 30 |  |  |  |  |  | 
NC(=O)c1cnccn1 [PYRAZINAMIDE] | > 30 | > 30 | > 30 | > 30 | > 30 | > 30 | > 10 | > 30 | > 30 | > 30 | 28 | > 30
CCOC(=O)c1ccc(O)cc1 [ETHYLPARABEN] | > 30 | > 30 | > 30 | > 30 | > 30 | > 30 |  |  |  |  |  | 
CC(C)OC(=O)[C@H](C)N[P@](=O)(OC[C@H]1O[C@@H](n2ccc(=O)[nH]c2=O)[C@](C)(F)[C@@H]1O)Oc1ccccc1 [SOFOSBUVIR] | > 30 | > 30 | > 30 | > 30 | > 30 | > 30 |  |  |  |  |  | 
C[N+]1(C)[C@@H]2C[C@@H](OC(=O)[C@H](CO)c3ccccc3)C[C@H]1[C@@H]1O[C@@H]12 [METHSCOPOLAMINE] | > 30 | > 30 | > 30 | > 30 | > 30 | > 30 |  |  |  |  |  | 
O=C(COc1ccc(Cl)cc1)N1CCN(Cc2ccc3c(c2)OCO3)CC1 [FIPEXIDE] | 13.3 | > 30 | 27.1 | > 30 | > 30 | > 30 |  |  |  |  |  | 
CC(=O)Oc1c(C)cc(OCC(O)CNC(C)C)c(C)c1C (configuration not stated) [METIPRANOLOL] | > 30 | > 30 | > 30 | > 30 | > 30 | > 30 |  |  |  |  |  | 
CC1(C)O[C@@H]2C[C@H]3[C@@H]4C[C@H](F)C5=CC(=O)CC[C@]5(C)[C@H]4[C@@H](O)C[C@]3(C)[C@]2(C(=O)CO)O1 [FLURANDRENOLIDE] | > 30 | > 30 | > 30 | > 30 | > 30 | 0.0666 |  |  |  |  |  | 
CN(C)C(=O)Oc1ccc[n+](C)c1 [PYRIDOSTIGMINE] | > 30 | > 30 | > 30 | > 30 | > 30 | > 30 |  |  |  |  |  | 
C[C@H]1O[C@H](O[C@H]2[C@H](O)[C@@H](O)[C@@H](O[C@H]3[C@H](O)[C@@H](O)C(O)O[C@@H]3CO)O[C@@H]2CO)[C@H](O)[C@@H](O)[C@@H]1N[C@H]1C=C(CO)[C@@H](O)[C@H](O)[C@H]1O (some centres not stated) [ACARBOSE] | > 30 | > 30 | > 30 | > 30 | > 30 | > 30 | > 10 |  | > 30 | > 30 | > 30 | 30
CC(O)CO (configuration not stated) [PROPYLENE GLYCOL] | > 30 | > 30 | > 30 | > 30 | > 30 | > 30 |  |  |  |  |  | 
CCOC(=O)N[C@@H]1CC[C@@H]2[C@@H](C1)C[C@H]1C(=O)O[C@H](C)[C@H]1[C@H]2/C=C/c1ccc(-c2cccc(F)c2)cn1 [VORAPAXAR] | > 30 | > 30 | > 30 | > 30 | > 30 | > 30 |  |  |  |  |  | 
